How the values were obtained:
[1] = biological target: Dual specificity protein kinase CLK3 (Homo sapiens, UniProt P49761)
Description: Inhibition of CLK3 (unknown origin) incubated for 10 mins in presence of ATP

[2] = biological target: Dual specificity protein kinase CLK2 (Homo sapiens, UniProt P49760)
Description: Inhibition of CLK2 (unknown origin) incubated for 10 mins in presence of ATP

[3] = biological target: T1, Dual specificity tyrosine-phosphorylation-regulated kinase 1A (Homo sapiens, UniProt Q13627)
Description: Inhibition of DYRK1A (unknown origin) incubated for 10 mins in presence of ATP

[4] = biological target: Dual specificity tyrosine-phosphorylation-regulated kinase 1B (Homo sapiens) (UniProt Q9Y463); conditions: dose 100.0 nM
Description: Inhibition of DYRK1B (unknown origin) at 100 nM relative to control

[5] = biological target: T2, Dual specificity protein kinase CLK4 (Homo sapiens, UniProt Q9HAZ1)
Target sequence in this assay (Q9HAZ1 whole entry): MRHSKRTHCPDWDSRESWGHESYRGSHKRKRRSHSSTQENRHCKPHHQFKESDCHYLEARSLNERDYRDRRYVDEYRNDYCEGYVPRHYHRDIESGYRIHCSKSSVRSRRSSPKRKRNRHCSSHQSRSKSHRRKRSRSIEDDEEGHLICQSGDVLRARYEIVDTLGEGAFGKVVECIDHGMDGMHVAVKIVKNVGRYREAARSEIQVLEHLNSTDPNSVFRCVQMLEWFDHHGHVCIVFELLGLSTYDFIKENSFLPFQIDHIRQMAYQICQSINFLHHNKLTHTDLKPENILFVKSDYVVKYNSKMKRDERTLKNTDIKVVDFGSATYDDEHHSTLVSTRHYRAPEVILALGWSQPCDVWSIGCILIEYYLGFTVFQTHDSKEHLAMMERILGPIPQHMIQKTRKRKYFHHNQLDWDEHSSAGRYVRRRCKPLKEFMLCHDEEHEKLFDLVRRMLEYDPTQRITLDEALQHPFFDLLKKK
Description: Inhibition of CLK4 (unknown origin) incubated for 10 mins in presence of ATP

[6] = biological target: T3, Dual specificity protein kinase CLK1 (Homo sapiens, UniProt P49759); conditions: dose 100.0 nM
Target sequence in this assay (P49759 whole entry, looked up): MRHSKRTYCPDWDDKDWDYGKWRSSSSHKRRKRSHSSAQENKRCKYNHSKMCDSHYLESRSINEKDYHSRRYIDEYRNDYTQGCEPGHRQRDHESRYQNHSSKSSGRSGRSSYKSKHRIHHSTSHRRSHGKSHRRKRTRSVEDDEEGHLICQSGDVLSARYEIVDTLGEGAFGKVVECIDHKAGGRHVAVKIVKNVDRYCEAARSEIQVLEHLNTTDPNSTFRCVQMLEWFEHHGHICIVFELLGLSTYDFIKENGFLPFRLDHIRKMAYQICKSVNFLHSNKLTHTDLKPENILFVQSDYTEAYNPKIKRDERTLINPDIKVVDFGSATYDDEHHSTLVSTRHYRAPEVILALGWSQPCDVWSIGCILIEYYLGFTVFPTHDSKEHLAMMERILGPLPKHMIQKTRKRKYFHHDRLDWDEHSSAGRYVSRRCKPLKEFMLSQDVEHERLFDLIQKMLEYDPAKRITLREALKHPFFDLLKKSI
Description: Inhibition of CLK1 (unknown origin) at 100 nM relative to control

[7] = biological target: Receptor-type tyrosine-protein kinase FLT3 (Homo sapiens) (UniProt P36888); conditions: dose 100.0 nM
Description: Inhibition of FLT3 (unknown origin) at 100 nM relative to control

[8] = biological target: T4, Serine/arginine-rich splicing factor 6 (Rattus norvegicus) (UniProt G3V6S8); conditions: Chondrocyte, dose 10-100 nM, time 1.0 hrs
T4 sequence (whole entry): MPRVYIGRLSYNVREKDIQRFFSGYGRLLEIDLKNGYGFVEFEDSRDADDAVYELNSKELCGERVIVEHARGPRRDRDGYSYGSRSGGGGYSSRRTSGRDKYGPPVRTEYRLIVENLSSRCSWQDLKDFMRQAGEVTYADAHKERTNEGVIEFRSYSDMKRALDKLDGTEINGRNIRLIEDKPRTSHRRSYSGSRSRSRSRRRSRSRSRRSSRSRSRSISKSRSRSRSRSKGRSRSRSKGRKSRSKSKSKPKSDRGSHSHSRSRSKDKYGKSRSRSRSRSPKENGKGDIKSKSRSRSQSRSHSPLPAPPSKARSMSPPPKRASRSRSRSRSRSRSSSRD

[9] = biological target: T3, Dual specificity protein kinase CLK1
Target sequence in this assay (P49759 whole entry): as the sequence (P49759 whole entry, looked up) above
Description: Inhibition of CLK1 (unknown origin) incubated for 10 mins in presence of ATP

[10] = biological target: Homeodomain-interacting protein kinase 2 (Homo sapiens) (UniProt Q9H2X6); conditions: dose 100.0 nM
Homeodomain-interacting protein kinase 2 (Homo sapiens), sequence (Q9H2X6 whole entry, looked up): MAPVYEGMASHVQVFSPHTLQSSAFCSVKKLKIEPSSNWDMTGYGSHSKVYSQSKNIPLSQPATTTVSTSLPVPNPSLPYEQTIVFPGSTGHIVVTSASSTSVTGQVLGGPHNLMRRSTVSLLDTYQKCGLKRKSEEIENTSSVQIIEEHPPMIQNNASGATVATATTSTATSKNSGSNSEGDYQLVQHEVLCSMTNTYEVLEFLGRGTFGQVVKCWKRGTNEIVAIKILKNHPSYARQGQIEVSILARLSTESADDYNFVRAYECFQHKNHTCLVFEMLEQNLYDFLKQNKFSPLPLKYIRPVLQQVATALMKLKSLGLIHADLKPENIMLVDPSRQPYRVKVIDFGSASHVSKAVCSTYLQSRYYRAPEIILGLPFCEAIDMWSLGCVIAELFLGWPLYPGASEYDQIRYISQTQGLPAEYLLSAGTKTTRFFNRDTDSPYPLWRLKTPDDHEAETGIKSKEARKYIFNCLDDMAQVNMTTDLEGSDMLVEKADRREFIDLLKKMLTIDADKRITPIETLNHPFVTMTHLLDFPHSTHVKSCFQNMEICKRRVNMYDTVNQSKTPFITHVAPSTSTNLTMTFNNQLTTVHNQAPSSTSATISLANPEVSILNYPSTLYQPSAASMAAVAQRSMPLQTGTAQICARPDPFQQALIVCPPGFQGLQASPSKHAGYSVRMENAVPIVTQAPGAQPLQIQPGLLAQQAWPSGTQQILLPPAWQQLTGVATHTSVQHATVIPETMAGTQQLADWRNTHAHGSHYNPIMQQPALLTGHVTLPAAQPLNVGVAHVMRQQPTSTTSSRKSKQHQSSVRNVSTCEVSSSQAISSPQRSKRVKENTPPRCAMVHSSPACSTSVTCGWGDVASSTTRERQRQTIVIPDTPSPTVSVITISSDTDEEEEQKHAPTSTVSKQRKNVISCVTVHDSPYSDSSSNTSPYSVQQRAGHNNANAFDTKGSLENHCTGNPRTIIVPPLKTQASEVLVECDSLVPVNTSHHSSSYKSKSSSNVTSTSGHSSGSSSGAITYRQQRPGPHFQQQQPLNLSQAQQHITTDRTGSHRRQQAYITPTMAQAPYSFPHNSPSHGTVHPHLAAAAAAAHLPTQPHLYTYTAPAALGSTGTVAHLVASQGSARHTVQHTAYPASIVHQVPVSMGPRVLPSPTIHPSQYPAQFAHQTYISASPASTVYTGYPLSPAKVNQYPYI
Description: Inhibition of HIPK2 (unknown origin) at 100 nM relative to control

[11] = biological target: T2, Dual specificity protein kinase CLK4; conditions: dose 100.0 nM
Target sequence in this assay (Q9HAZ1 whole entry, looked up): as the sequence (Q9HAZ1 whole entry) above
Description: Inhibition of CLK4 (unknown origin) at 100 nM relative to control

[12] = biological target: Serine/threonine-protein kinase pim-3 (Homo sapiens) (UniProt Q86V86); conditions: dose 100.0 nM
Description: Inhibition of PIM3 (unknown origin) at 100 nM relative to control

[13] = biological target: T1, Dual specificity tyrosine-phosphorylation-regulated kinase 1A; conditions: dose 100.0 nM
Description: Inhibition of DYRKIA (unknown origin) at 100 nM relative to control

[14] = biological target: TRAF2 and NCK-interacting protein kinase (Homo sapiens) (UniProt Q9UKE5); conditions: dose 100.0 nM
TRAF2 and NCK-interacting protein kinase (Homo sapiens), sequence (Q9UKE5 whole entry, looked up): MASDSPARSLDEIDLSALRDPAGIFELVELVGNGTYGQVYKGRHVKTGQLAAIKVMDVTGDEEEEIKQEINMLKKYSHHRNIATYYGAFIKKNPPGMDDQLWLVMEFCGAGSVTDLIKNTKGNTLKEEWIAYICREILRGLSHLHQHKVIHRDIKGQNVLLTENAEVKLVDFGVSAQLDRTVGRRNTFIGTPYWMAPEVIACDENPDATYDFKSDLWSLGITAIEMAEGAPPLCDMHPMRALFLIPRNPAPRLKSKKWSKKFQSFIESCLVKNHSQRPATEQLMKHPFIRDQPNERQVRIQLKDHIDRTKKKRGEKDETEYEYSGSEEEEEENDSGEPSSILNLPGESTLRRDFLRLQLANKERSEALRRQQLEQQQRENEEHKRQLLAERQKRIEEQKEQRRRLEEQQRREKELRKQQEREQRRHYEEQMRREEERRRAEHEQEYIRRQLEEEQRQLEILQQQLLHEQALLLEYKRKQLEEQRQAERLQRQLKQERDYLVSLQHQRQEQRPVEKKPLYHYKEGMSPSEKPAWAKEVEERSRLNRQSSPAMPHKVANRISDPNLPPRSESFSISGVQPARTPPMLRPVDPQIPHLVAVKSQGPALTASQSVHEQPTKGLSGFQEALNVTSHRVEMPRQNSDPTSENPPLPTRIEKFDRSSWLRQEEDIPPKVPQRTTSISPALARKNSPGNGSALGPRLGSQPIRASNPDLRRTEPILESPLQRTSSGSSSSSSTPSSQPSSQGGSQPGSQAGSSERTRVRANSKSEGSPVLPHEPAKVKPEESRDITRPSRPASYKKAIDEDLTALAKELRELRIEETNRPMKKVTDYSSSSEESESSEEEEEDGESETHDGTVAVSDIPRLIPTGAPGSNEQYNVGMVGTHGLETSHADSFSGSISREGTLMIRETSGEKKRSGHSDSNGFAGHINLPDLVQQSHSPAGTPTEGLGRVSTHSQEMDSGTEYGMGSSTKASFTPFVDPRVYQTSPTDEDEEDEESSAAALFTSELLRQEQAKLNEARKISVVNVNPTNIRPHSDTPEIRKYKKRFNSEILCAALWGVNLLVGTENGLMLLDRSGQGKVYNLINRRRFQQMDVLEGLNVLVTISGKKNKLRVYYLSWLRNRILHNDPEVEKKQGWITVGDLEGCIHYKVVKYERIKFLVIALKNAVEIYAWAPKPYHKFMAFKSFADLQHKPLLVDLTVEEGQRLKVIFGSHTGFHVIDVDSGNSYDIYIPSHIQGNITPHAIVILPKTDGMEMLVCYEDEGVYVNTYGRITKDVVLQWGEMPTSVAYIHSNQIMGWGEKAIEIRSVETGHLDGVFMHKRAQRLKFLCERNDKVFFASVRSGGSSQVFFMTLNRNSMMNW
Description: Inhibition of TNIK (unknown origin) at 100 nM relative to control

Dual specificity protein kinase CLK2, sequence (P49760 whole entry): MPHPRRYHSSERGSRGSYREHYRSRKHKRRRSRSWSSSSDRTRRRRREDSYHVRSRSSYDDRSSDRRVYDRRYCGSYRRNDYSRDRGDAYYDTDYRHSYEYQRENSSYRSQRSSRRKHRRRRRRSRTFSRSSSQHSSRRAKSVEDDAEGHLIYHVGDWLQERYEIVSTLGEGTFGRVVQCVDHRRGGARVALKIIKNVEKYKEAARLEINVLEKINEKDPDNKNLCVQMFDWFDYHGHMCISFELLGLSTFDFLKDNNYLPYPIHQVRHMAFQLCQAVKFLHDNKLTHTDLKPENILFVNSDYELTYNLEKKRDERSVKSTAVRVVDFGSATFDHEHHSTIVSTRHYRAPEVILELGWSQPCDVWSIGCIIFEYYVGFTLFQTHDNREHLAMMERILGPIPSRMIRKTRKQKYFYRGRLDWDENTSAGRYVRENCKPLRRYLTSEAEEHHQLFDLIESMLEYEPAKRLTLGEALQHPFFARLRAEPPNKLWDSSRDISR
Dual specificity protein kinase CLK3, sequence (P49761 whole entry): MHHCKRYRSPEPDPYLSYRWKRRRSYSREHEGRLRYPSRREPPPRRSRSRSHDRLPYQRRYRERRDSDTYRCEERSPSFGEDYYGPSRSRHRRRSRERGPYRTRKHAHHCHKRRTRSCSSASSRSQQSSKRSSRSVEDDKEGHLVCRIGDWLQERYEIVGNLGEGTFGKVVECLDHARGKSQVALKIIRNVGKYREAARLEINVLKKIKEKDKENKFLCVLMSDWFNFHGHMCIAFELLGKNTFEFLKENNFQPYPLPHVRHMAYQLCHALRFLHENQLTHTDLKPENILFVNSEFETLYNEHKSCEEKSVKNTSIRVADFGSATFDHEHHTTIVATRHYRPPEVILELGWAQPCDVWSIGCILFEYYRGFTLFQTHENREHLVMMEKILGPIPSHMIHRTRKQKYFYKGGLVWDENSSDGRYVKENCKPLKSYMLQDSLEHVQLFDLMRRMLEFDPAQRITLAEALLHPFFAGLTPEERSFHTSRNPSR

SMILES: CC(C)CC(=O)Nc1cncc(-c2ccc3[nH]nc(C#Cc4cccc(C(=O)O)c4)c3c2)c1
- IC50 [1]: > 100 nM

SMILES: CC(C)CC(=O)Nc1cncc(-c2ccc3[nH]nc(C#Cc4ccc(C=O)cc4)c3c2)c1
- IC50 [2]: 10.2 nM
- IC50 [1]: > 100 nM

SMILES: CC(C)CC(=O)Nc1cncc(-c2ccc3[nH]nc(C#Cc4ccncc4)c3c2)c1
- IC50 [1]: > 100 nM

SMILES: CC(C)CC(=O)Nc1cncc(-c2ccc3[nH]nc(C#Cc4ccccc4Cl)c3c2)c1
- IC50 [1]: > 100 nM

SMILES: CC(C)CC(=O)Nc1cncc(-c2ccc3[nH]nc(C#Cc4cccnc4)c3c2)c1
- IC50 [1]: 15.6 nM

SMILES: CC(C)C[C@H](N)COc1cncc(-c2ccc3[nH]nc(C#CC4CC4)c3c2)c1
- IC50 [1]: > 100 nM

SMILES: CC(C)CC(=O)Nc1cncc(-c2ccc3[nH]nc(C#CC4CC4)c3c2)c1
- IC50 [1]: > 100 nM

SMILES: CC(C)CC(=O)Nc1cncc(-c2ccc3[nH]nc(C#Cc4ncccn4)c3c2)c1
- IC50 [1]: > 100 nM

SMILES: C(#Cc1n[nH]c2ccc(-c3cncc(OCC4CCCN4)c3)cc12)c1ccsc1 (stereo not given)
- IC50 [2]: 10 nM
- IC50 [1]: > 100 nM

SMILES: CC(C)CC(=O)Nc1cncc(-c2ccc3[nH]nc(C#Cc4ccc5ccccc5n4)c3c2)c1
- IC50 [1]: > 100 nM

SMILES: CC(C)C[C@H](N)COc1cncc(-c2ccc3[nH]nc(C#Cc4cccc(F)c4)c3c2)c1
- IC50 [1]: > 100 nM

SMILES: CC(C)CC(=O)Nc1cncc(-c2ccc3[nH]nc(C#Cc4ccc5cnccc5c4)c3c2)c1
- IC50 [1]: > 100 nM

SMILES: Cc1[nH]nc2ccc(-c3cncc(OC[C@@H](N)CC(C)C)c3)cc12
- IC50 [2]: 12.3 nM
- IC50 [3]: 37.2 nM
- IC50 [1]: > 100 nM

SMILES: CC(C)C[C@H](N)COc1cncc(-c2ccc3[nH]nc(C#Cc4ccsc4)c3c2)c1
- inhibition [4]: 94.7%
- IC50 [5]: 3.2 nM
- inhibition [6]: 97.2%
- inhibition [7]: 96%
- inhibition [8]: Dose-Dependent Effect
- IC50 [9]: 21 nM
- IC50 [3]: 21.7 nM
- IC50 [1]: > 100 nM
- inhibition [10]: 93.1%
- inhibition [11]: 94.4%
- inhibition [12]: 92.4%
- inhibition [13]: 93.2%
- inhibition [14]: 94.1%

— ChEMBL document CHEMBL5518234, “Structure-Guided Discovery of Potent and Selective CLK2 Inhibitors for the Treatment of Knee Osteoarthritis” (J Med Chem, 2024)
